Activity calls are given as the source filed them. The rule behind the calls is not given here.
Tested on: 697B B-cell line, NF-kB luciferase reporter luminescence
Test: inhibitors of B-cell NF-kB luciferase signal – 697B cells, luminescence, selectivity assay for T-cell antigen receptor NF-kB inhibitors, dose response (AID 489033)

With `Cc1ccc(NC(=O)Nc2ccnc(-c3cccnc3)n2)cc1` the IC50 was 1.05 µM.

`COc1cc(/C=C2/SC(=Nc3ccc(O)cc3)NC2=O)ccc1O` was tested, and the IC50 was 23.4 µM (inactive).

For `CN(C)c1ccc2c(c1)OC(N)=C(C#N)C2c1cccc(F)c1` (centres undefined), the IC50 was > 80 µM (inactive).

Work on `CCSc1nc2ccccc2n1C(=O)/C=C\c1ccc(OC)c(OC)c1` yielded an IC50 of 4.67 µM.

With `O=C(Nc1ccc(C(F)(F)F)cc1)c1cccn(Cc2ccc3c(c2)OC(F)(F)O3)c1=O` the IC50 was > 80 µM (inactive).

For `COc1cccc(/C=N/Nc2ncnc3c2ncn3Cc2ccccc2)c1O`, the IC50 was 23.4 µM (inactive).

Work on `CCOc1ccccc1C(=O)Nc1ccc2nc(N3CCN(c4ncccn4)CC3)cc(C)c2c1` yielded an IC50 of 4.69 µM.

`COc1ccc2nc(C)cc(N/N=C/c3ccc(F)cc3)c2c1` gave an IC50 of 2.08 µM.

With `CC(C)Cn1c(N)c(C(=O)CSc2ccc3c(c2)OCCO3)c(=O)n(C)c1=O` the IC50 was 51.7 µM (inactive).

With `CCc1ccc(/C=N/NC(=O)c2cc(C3CC3)nc3ccccc23)s1` the IC50 was 23.3 µM (inactive).

In the case of `CCOc1ccccc1C1CC(=O)Nc2cc3c(cc21)OCO3` (centres undefined), the IC50 is reported as > 80 µM (inactive).

`COc1cc(-c2noc(C)c2/C=C/c2cccc([N+](=O)[O-])c2)cc(OC)c1OC` was tested, and the IC50 was > 80 µM (inactive).

For `CCOC(=O)N=Nc1c2ccccc2c2nc3no[nH]c3nc12`, the IC50 was 2.28 µM.

For `O=C(c1ccccc1-c1ccccc1)N1CCN(c2ccccn2)CC1`, the IC50 was > 80 µM (inactive).

With `CC(=O)O[C@H]1C(=O)[C@]2(C)[C@H]([C@H](OC(=O)c3ccccc3)[C@]3(O)C[C@H](OC(=O)[C@H](O)[C@@H](NC(=O)c4ccccc4)c4ccccc4)C(C)=C1C3(C)C)[C@]1(OC(C)=O)CO[C@@H]1C[C@@H]2O` the IC50 was > 80 µM (inactive).

For `COC(=O)c1[nH]c2c(c1C)C(=O)CC(c1cccs1)C2` (centres undefined), the IC50 was > 80 µM (inactive).

`COc1ccc(N(C(=O)c2ccccc2C)S(=O)(=O)c2cccs2)cc1` was tested, and the IC50 was > 80 µM (inactive).

`CC(=O)O[C@@]12CO[C@@H]1C[C@H](O)[C@@]1(C)C(=O)[C@H](O)C3=C(C)[C@@H](OC(=O)[C@H](O)[C@@H](NC(=O)c4ccccc4)c4ccccc4)C[C@@](O)([C@@H](OC(=O)c4ccccc4)C12)C3(C)C` (some centres undefined) was tested, and the IC50 was > 80 µM (inactive).

In the case of `Cc1ccc(C(=O)c2cc([N+](=O)[O-])ccc2N2CCOCC2)c(C)c1`, the IC50 is reported as > 80 µM (inactive).

`CCc1c(C)nc2ncnn2c1NCCc1ccc(OC)cc1` was tested, and the IC50 was > 80 µM (inactive).

With `COc1ccc([N+](=O)[O-])cc1Nc1c2ccccc2nc2ccccc12` the IC50 was > 80 µM (inactive).

For `CCS(=O)(=O)c1ncc(Cl)c(C(=O)Nc2ccc(S(=O)(=O)N(C)c3ccccc3)cc2)n1`, the IC50 was 1.42 µM.

`C[C@]12CC[C@H](O)C[C@H]1CC[C@@H]1[C@@H]2CC[C@]2(C)[C@@H](C3=CC(=O)OC3)CC[C@]12O` gave an IC50 of 0.67 µM.

With `CC(C)(C)OC(=O)NCCCCCc1cn(CC(=O)NCCCCCCCCCCC(=O)N2CCN(C(=O)OC(C)(C)C)CC2)nn1` the IC50 was > 80 µM (inactive).

`Cc1ccsc1/C=N/NC(=O)c1cc(-c2ccncc2)nc2ccccc12` showed an IC50 of 2.38 µM.

`CCCCn1c2c(c(=N)c3c1CCC3)CCC2` was tested, and the IC50 was > 80 µM (inactive).

For `COc1ccc(-c2ccc3oc(-c4ccc(OC)cc4)c(C#CCO)c3c2)cc1`, the IC50 was > 80 µM (inactive).

`CC(=O)c1sc2c(c1OC(=O)c1ccc(Cl)cc1Cl)c(=O)n(-c1ccccc1)c(=S)n2-c1ccccc1` showed an IC50 of 1.93 µM.

For `NS(=O)(=O)c1ccc(Sc2nc3ccccc3s2)c([N+](=O)[O-])c1`, the IC50 was 1.34 µM.

With `O=c1cc(-c2ccccc2)[nH]c2cc(F)ccc12` the IC50 was > 80 µM (inactive).

In the case of `O=C(Nc1nc2ccc(S(=O)(=O)N3CCCC3)cc2s1)C1CCCCC1`, the IC50 is reported as > 80 µM (inactive).

With `CCCC(=O)NC(c1ccccc1Cl)c1ccc2cccnc2c1O` (centres undefined) the IC50 was > 80 µM (inactive).

`Cc1cccc(N2CCN(C(=O)c3c(-c4ccccc4)noc3C)CC2)c1C` was tested, and the IC50 was > 80 µM (inactive).

`CCCCN1/C(=C/c2ccc3ccccc3[n+]2CC)Sc2ccccc21` gave an IC50 of 8.19 µM.

For `COc1ccc(Nc2cc(C)nc(-n3nc(C)cc3C)n2)cc1`, the IC50 was > 80 µM (inactive).

Compound `COc1cc(/C=C/[N+](=O)[O-])ccc1OCc1cccc(C(=O)O)c1` has an IC50 of 12 µM.

With `COc1cccc(/C=N/Nc2ncnc3scc(-c4ccccc4)c23)c1O` the IC50 was 39.8 µM (inactive).

Work on `C/C(=N\NC(=O)c1ccc(Cl)c(Cl)c1)c1ccccn1` yielded an IC50 of 1.03 µM.

For `COc1ccc(C(=O)N(C)Cc2cnn(Cc3ccccc3)c2)cc1S(=O)(=O)N1CCOCC1`, the IC50 was > 80 µM (inactive).

`Nc1ncn([C@@H]2O[C@H](CO)[C@@H](O)[C@H]2O)c(=O)n1` showed an IC50 of 11.9 µM.

`CCCC(=O)Nc1nc2ccc(NC(=O)c3c(F)c(F)c(OC)c(F)c3F)cc2s1` was tested, and the IC50 was > 80 µM (inactive).

`C/C=C(\C)C(=O)N[C@@H](c1ccccc1)[C@@H](O)C(=O)O[C@H]1C[C@@]2(O)[C@@H](OC(=O)c3ccccc3)C3[C@](C)(C(=O)[C@H](OC(C)=O)C(=C1C)C2(C)C)[C@H](O)C[C@H]1OC[C@@]31OC(C)=O` (some centres undefined) was tested, and the IC50 was > 80 µM (inactive).

In the case of `CCCCC(=O)NC(c1ccc(N(CC)CC)cc1)c1ccc2cccnc2c1O` (centres undefined), the IC50 is reported as > 80 µM (inactive).

In the case of `Cc1cc(C)cc(NS(=O)(=O)c2ccc(-c3cnc(C4CC4)o3)cc2)c1`, the IC50 is reported as 53.1 µM (inactive).

With `Cc1cc(-c2ccc(C(C)C)c(S(=O)(=O)N3CCN(c4ccccc4)CC3)c2)on1` the IC50 was > 80 µM (inactive).

With `Cc1ccc(N(C)S(=O)(=O)c2ccc(-c3cnc(C4CC4)o3)cc2)cc1` the IC50 was 67.6 µM (inactive).

For `Clc1cccc(Cl)c1/C=N/Nc1c(Cl)cncc1Cl`, the IC50 was > 80 µM (inactive).

`CCOc1ccccc1NC(=O)Cn1nnc(C(=O)NCc2ccco2)c1N` was tested, and the IC50 was > 80 µM (inactive).

With `Cc1ccc(N/C(N)=N/c2nc(CSc3nnc(C)s3)cc(=O)[nH]2)c(C)c1` the IC50 was > 80 µM (inactive).

In the case of `Cc1cc(O)c2c(c1O)C(=O)[C@]13C(=C2O)C(=O)[C@@H]2[C@@H](O)[C@H]1[C@@H]1[C@H](O)[C@H]3C(=O)C3=C(O)c4c(O)cc(C)c(O)c4C(=O)[C@]312`, the IC50 is reported as > 80 µM (inactive).

For `O=C(COc1ccccc1-c1ccccc1)N/N=C/c1cccc2ccccc12`, the IC50 was > 80 µM (inactive).

`CCCCCN1C=CC(=C2C(=O)c3ccccc3C2=O)C=C1` was tested, and the IC50 was 0.38 µM.

In the case of `COc1ccc(/C=c2/sc3n(c2=O)C(c2ccccc2OC)C2=C(N=3)c3ccccc3CC2)cc1O` (centres undefined), the IC50 is reported as > 80 µM (inactive).

In the case of `Cc1cccc(N2CCN(C(=O)c3ccc(S(=O)(=O)N(C)c4ccccc4)cc3)CC2)c1C`, the IC50 is reported as > 80 µM (inactive).

`Cc1ccc(O)c(N=Nc2nccs2)c1` gave an IC50 of 8.6 µM.

`CC1C/C(=C/c2ccncc2)C(=O)/C(=C/c2ccncc2)C1` (centres undefined) was tested, and the IC50 was 8.39 µM.

`Cc1ccc(Nc2nc(-c3c(C)nc4ccccn34)cs2)cc1` was tested, and the IC50 was > 80 µM (inactive).

For `COc1cccc(N/C(N)=N/c2nc(CSc3ccccn3)cc(=O)[nH]2)c1`, the IC50 was > 80 µM (inactive).

In the case of `COc1ccccc1N1CCN(C(=O)c2cc(=O)c3cc(C)cc(C)c3o2)CC1`, the IC50 is reported as > 80 µM (inactive).

With `O=C(c1cn(Cc2ccccc2)nc1-c1ccccc1)N1CCN(c2ccccn2)CC1` the IC50 was > 80 µM (inactive).

`Clc1ccc2c(c1)C(C1=NCCN1)c1ccccc1CS2` (centres undefined) was tested, and the IC50 was > 80 µM (inactive).

`Nc1nc(-c2ccccc2)cc(N2CCCCC2)n1` was tested, and the IC50 was > 80 µM (inactive).

In the case of `CCOc1ccccc1NC(=O)Cn1nnc(C(=O)NCc2cccs2)c1N`, the IC50 is reported as > 80 µM (inactive).

For `O=C(Nc1ccc(S(=O)(=O)N2CCCCC2)cc1)c1ccc(CN2CCOCC2)cc1`, the IC50 was 51.2 µM (inactive).

For `COc1ccc(OC)c(-c2nnc3n2N=C(c2ccc(OC)c(OC)c2)CS3)c1`, the IC50 was 55.2 µM (inactive).

With `CCCN1C=CC(=C2C(=O)c3ccccc3C2=O)C=C1` the IC50 was under 0.16 µM.

`O=C(Sc1cccc2cccnc12)c1ccccc1Br` showed an IC50 of 3.61 µM.

In the case of `COc1ccc(OCC(=O)Nc2ccccc2N2CCCCC2)cc1`, the IC50 is reported as > 80 µM (inactive).

For `Cc1nc2c(=O)n(C)c(=O)nc-2n(C)n1`, the IC50 was 3.36 µM.

For `COc1cc(C2c3cc4c(cc3CC3COC(=O)C32)OCO4)cc(OC)c1OC` (centres undefined), the IC50 was > 80 µM (inactive).

With `COC(=O)c1ccc2nc(Nc3nc4c(F)cc(F)cc4s3)sc2c1` the IC50 was 24.6 µM (inactive).

For `COC(=O)c1ccc(Oc2cc(C)nc(SC)n2)cc1`, the IC50 was > 80 µM (inactive).

`CCCCCCCOc1ccc(OC(=O)c2ccncc2)cc1` was tested, and the IC50 was > 80 µM (inactive).

`Cc1ccc(NC(=O)C2=C(c3ccccc3)S(=O)(=O)CCS2(=O)=O)cc1` was tested, and the IC50 was 0.39 µM.

With `COc1cc(C2=NOC(C(=O)NCc3ccc(F)cc3)C2)cc(OC)c1OC` (centres undefined) the IC50 was > 80 µM (inactive).

With `O=C(NNc1ccnc2cc(Cl)ccc12)C1CCCCC1` the IC50 was > 80 µM (inactive).

In the case of `CCOC(=O)Nc1nc(-c2ccccc2)c(C(=O)c2ccc(Cl)cc2)s1`, the IC50 is reported as > 80 µM (inactive).

For `COc1ccc(Br)cc1/C(C)=N/NC1=NCCN1`, the IC50 was > 80 µM (inactive).

For `COc1ccc(-[n+]2c(-c3ccccc3)cc(-c3ccc(C)cc3)cc2-c2ccccc2)cc1`, the IC50 was 8.23 µM.

Compound `O=C(NC(Nc1nc2ccc([N+](=O)[O-])cc2s1)(C(F)(F)F)C(F)(F)F)c1ccccc1` has an IC50 of 0.72 µM.

In the case of `O=C1/C(=C/c2ccc(N3CCOCC3)o2)SC(=Nc2ccccc2)N1CCc1c[nH]c2ccccc12`, the IC50 is reported as 12.8 µM.

With `Cc1cc(C)nc(SCC(=O)Nc2ccnc3ccccc23)n1` the IC50 was > 80 µM (inactive).

For `CN1/C(=C\C(=O)C[n+]2ccc3ccccc3c2)C(C)(C)c2ccccc21`, the IC50 was > 80 µM (inactive).

Compound `Cc1ccc(-c2cc(-c3ccc(C)cc3)[n+](-c3ccccc3)c(-c3ccc(C)cc3)c2)cc1` has an IC50 of 0.7 µM.

For `COc1cc2c(c(OC)c1OC)-c1ccc(O)cc1[C@@H](NC(C)=O)CC2`, the IC50 was > 80 µM (inactive).

`Cc1cc(C)cc(C(=O)N2CC(=O)Nc3ccccc32)c1` was tested, and the IC50 was > 80 µM (inactive).

For `COc1ccc(/C=N\NC(=O)c2ccccc2F)cc1COc1ccc(F)cc1F`, the IC50 was > 80 µM (inactive).

`CCO[C@H]1OC(C(=O)NCc2nc3ccccc3[nH]2)=C[C@@H](C2CC2)[C@@H]1CCCO` was tested, and the IC50 was > 80 µM (inactive).

`N#Cc1ccc(-c2cccs2)nc1SCc1cccnc1` was tested, and the IC50 was > 80 µM (inactive).

For `O=C(c1ccccc1)c1cc([N+](=O)[O-])ccc1N1CCOCC1`, the IC50 was > 80 µM (inactive).

With `CCOc1ccccc1C1CC(=O)Nc2cc(C)c(C)cc21` (centres undefined) the IC50 was > 80 µM (inactive).

`c1ccc(-c2noc(-c3ccc4c(c3)OCO4)n2)nc1` showed an IC50 of 1.27 µM.

Compound `CC(=O)c1c(C)[nH]c(C(=O)OCC(=O)Nc2ccc(C)cc2[N+](=O)[O-])c1C` has an IC50 of 11.3 µM.

`COC(=O)c1nn(-c2ccc3c(c2)CCN3C(C)=O)cc1O` was tested, and the IC50 was 5.08 µM.
